Laboratory results as given in patent US20250222146A1, “Radiopharmaceuticals Targeting Somatostatin Receptor 2 and Uses Thereof” (RayzeBio, Inc., priority 2023, published 2025).
pKi: −log10 of the molar value. Numbered stars: 1 amine (or outer) side, 2 acyl side, 3 side chain; on linkers, the order of the positions; unused ones are H or OH. Square brackets hold non-standard residues; d marks the D form. Peptide text beside a SMILES is read from it. * marks the point of attachment. DOTA(Lu)NH(CH2)6NHCOCH2 = O=C(CN1CCN2CCN3CCN(CC1)CC(=O)[O][Lu]([O]C(=O)C2)[O]C(=O)C3)NCCCCCCNC(=O)C*; X6 = O=C(CN1CCN2CCN3CCN(CC1)CC(=O)[O][Lu]([O]C(=O)C2)[O]C(=O)C3)NCCOCCOCCOCCNC(=O)C*; Ala(piperidin-4-yl) = O=C([C@H](CC1CCN([*:3])CC1)N[*:1])[*:2]; dTrp(βS-Me) = C[C@@H](c1c[nH]c2ccccc12)[C@@H](N)C(=O)O; Gly(piperidin-4-yl) = N[C@H](C(=O)O)C1CCNCC1; X20 = CN(C[C@H](N[*:1])C(=O)[*:2])c1ccccc1; dNMeW = CN[C@H](Cc1c[nH]c2ccccc12)C(=O)O; Dip = N[C@H](C(=O)O)C(c1ccccc1)c1ccccc1; X25 = O=C([C@H](CC1CNC1)N[*:1])[*:2]; Gly(cPent) = N[C@H](C(=O)O)C1CCCC1; 4Pal = N[C@@H](Cc1ccncc1)C(=O)O; Cha = N[C@@H](CC1CCCCC1)C(=O)O; Gly(cPr) = N[C@H](C(=O)O)C1CC1; NMehCys = CN[C@@H](CCS)C(=O)O; Cba = N[C@@H](CC1CCC1)C(=O)O; NMeK = CN[C@@H](CCCCN)C(=O)O; Phg = N[C@H](C(=O)O)c1ccccc1

The compounds below were run against SSTR2 (Homo sapiens, UniProt P30874) (assay: SSTR binding affinity by radioligand binding competition assay ([125I]-Tyr11-Somatostatin, membrane extracts)). Settings: radioligand competition, [125I]-Tyr11-Somatostatin 0.1 nM, membrane extracts; Ki from IC50 by Cheng Prusoff; read-out: SSTR2 Ki.
SSTR2, sequence (P30874 whole entry): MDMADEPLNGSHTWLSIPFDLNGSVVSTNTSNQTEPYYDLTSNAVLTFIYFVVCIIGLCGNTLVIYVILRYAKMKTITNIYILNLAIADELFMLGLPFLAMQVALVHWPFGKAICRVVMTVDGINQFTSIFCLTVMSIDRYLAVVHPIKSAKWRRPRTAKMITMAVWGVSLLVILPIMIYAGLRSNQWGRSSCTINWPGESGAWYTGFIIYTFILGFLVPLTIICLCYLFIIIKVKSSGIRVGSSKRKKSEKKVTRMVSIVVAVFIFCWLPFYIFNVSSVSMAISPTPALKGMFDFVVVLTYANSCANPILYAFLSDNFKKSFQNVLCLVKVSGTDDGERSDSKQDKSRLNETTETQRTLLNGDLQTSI
`CC(C)[C@@H]1NC(=O)[C@H](CCCCN)NC(=O)[C@@H]([C@@H](C)c2c[nH]c3ccccc23)NC(=O)[C@H](Cc2ccc(O)cc2)NC(=O)[C@H](CCSCC(=O)NCCCCCCNC(=O)CN2CCN3CCN4CCN(CC2)CC(=O)[O][Lu]([O]C(=O)C3)[O]C(=O)C4)N(C)C(=O)[C@H](Cc2ccccc2)NC1=O` [RB-0004609] (cyclo(F[NMehCys](DOTA(Lu)NH(CH2)6NHCOCH2)Y[dTrp(βS-Me)]KV)) was tested, and the pKi was > 9.00. In the case of `CC(C)[C@@H]1NC(=O)[C@H](CCCCN)N(C)C(=O)[C@@H](Cc2c[nH]c3ccccc23)N(C)C(=O)[C@H](Cc2ccc(O)cc2)NC(=O)[C@H](CCSCC(=O)NCCCCCCNC(=O)CN2CCN3CCN4CCN(CC2)CC(=O)[O][Lu]([O]C(=O)C3)[O]C(=O)C4)N(C)C(=O)[C@H](Cc2ccccc2)NC1=O` [RB-0004611] (cyclo(F[NMehCys](DOTA(Lu)NH(CH2)6NHCOCH2)Y[dNMeW][NMeK]V)), the pKi was > 9.00. With `CC(C)[C@@H]1NC(=O)[C@H](CCCCN)NC(=O)[C@@H](Cc2c[nH]c3ccccc23)NC(=O)[C@H](C(c2ccccc2)c2ccccc2)NC(=O)[C@H](CCSCC(=O)NCCCCCCNC(=O)CN2CCN3CCN4CCN(CC2)CC(=O)[O][Lu]([O]C(=O)C3)[O]C(=O)C4)N(C)C(=O)[C@H](Cc2ccccc2)NC1=O` [RB-0004613] (cyclo([Dip][dW]KVF[NMehCys](DOTA(Lu)NH(CH2)6NHCOCH2))) the pKi was > 9.00. With `CC(C)[C@@H]1NC(=O)[C@H](CCCCN)NC(=O)[C@@H](Cc2c[nH]c3ccccc23)NC(=O)[C@H](Cc2ccc(O)cc2)NC(=O)[C@H](CCSCC(=O)NCCCCCCNC(=O)CN2CCN3CCN4CCN(CC2)CC(=O)[O][Lu]([O]C(=O)C3)[O]C(=O)C4)N(C)C(=O)[C@H](CN(C)c2ccccc2)NC1=O` [RB-0004615] (cyclo(KV[X20][NMehCys](DOTA(Lu)NH(CH2)6NHCOCH2)Y[dW])) the pKi was > 9.00. With `CC(C)[C@@H]1NC(=O)[C@H](CCCCN)NC(=O)[C@@H](Cc2c[nH]c3ccccc23)NC(=O)[C@H](Cc2ccc(O)cc2)NC(=O)[C@H](CCSCC(=O)NCCCCCCNC(=O)CN2CCN3CCN4CCN(CC2)CC(=O)[O][Lu]([O]C(=O)C3)[O]C(=O)C4)N(C)C(=O)[C@H](CC2CCCCC2)NC1=O` [RB-0004617] (cyclo([Cha][NMehCys](DOTA(Lu)NH(CH2)6NHCOCH2)Y[dW]KV)) the pKi was 8.48 to 9.00. For `CO[C@H](C)[C@@H]1NC(=O)[C@H](CCCCN)NC(=O)[C@@H](Cc2c[nH]c3ccccc23)NC(=O)[C@H](Cc2ccc(O)cc2)NC(=O)[C@H](CCSCC(=O)NCCCCCCNC(=O)CN2CCN3CCN4CCN(CC2)CC(=O)[O][Lu]([O]C(=O)C3)[O]C(=O)C4)N(C)C(=O)[C@H](Cc2ccccc2)NC1=O` [RB-0004619], the pKi was > 9.00. `CN1C(=O)[C@H](Cc2ccccc2)NC(=O)[C@H](CC2CCC2)NC(=O)[C@H](CCCCN)NC(=O)[C@@H](Cc2c[nH]c3ccccc23)NC(=O)[C@H](Cc2ccc(O)cc2)NC(=O)[C@@H]1CCSCC(=O)NCCCCCCNC(=O)CN1CCN2CCN3CCN(CC1)CC(=O)[O][Lu]([O]C(=O)C2)[O]C(=O)C3` [RB-0004621] (cyclo([Cba]F[NMehCys](DOTA(Lu)NH(CH2)6NHCOCH2)Y[dW]K)) was tested, and the pKi was > 9.00. With `CN1C(=O)[C@H](Cc2ccccc2)NC(=O)[C@H](C2CCCC2)NC(=O)[C@H](CCCCN)NC(=O)[C@@H](Cc2c[nH]c3ccccc23)NC(=O)[C@H](Cc2ccc(O)cc2)NC(=O)[C@@H]1CCSCC(=O)NCCCCCCNC(=O)CN1CCN2CCN3CCN(CC1)CC(=O)[O][Lu]([O]C(=O)C2)[O]C(=O)C3` [RB-0004623] (cyclo(F[NMehCys](DOTA(Lu)NH(CH2)6NHCOCH2)Y[dW]K[Gly(cPent)])) the pKi was > 9.00. In the case of `C[C@@H](O)[C@@H]1NC(=O)[C@H](CCCCN)NC(=O)[C@@H](Cc2c[nH]c3ccccc23)NC(=O)[C@H](Cc2ccc(O)cc2)NC(=O)[C@H](CCSCC(=O)NCCCCCCNC(=O)CN2CCN3CCN4CCN(CC2)CC(=O)[O][Lu]([O]C(=O)C3)[O]C(=O)C4)N(C)C(=O)CNC1=O` [RB-0004819] (cyclo(G[NMehCys](DOTA(Lu)NH(CH2)6NHCOCH2)Y[dW]KT)), the pKi was > 9.00. `C[C@@H](O)[C@@H]1NC(=O)[C@H](CCCCN)NC(=O)[C@@H](Cc2c[nH]c3ccccc23)NC(=O)[C@H](Cc2ccc(O)cc2)NC(=O)[C@H](CCSCC(=O)NCCCCCCNC(=O)CN2CCN3CCN4CCN(CC2)CC(=O)[O][Lu]([O]C(=O)C3)[O]C(=O)C4)N(C)C(=O)[C@H](c2ccccc2)NC1=O` [RB-0004821] (cyclo(KT[Phg][NMehCys](DOTA(Lu)NH(CH2)6NHCOCH2)Y[dW])) was tested, and the pKi was 8.48 to 9.00. With `CC(C)[C@@H]1NC(=O)[C@H](CCCCN)NC(=O)[C@@H](Cc2c[nH]c3ccccc23)NC(=O)[C@H](Cc2ccc(O)cc2)NC(=O)[C@H](CCSCC(=O)NCCOCCOCCOCCNC(=O)CN2CCN3CCN4CCN(CC2)CC(=O)[O][Lu]([O]C(=O)C3)[O]C(=O)C4)N(C)C(=O)[C@H](Cc2ccccc2)NC1=O` [RB-0004823] (cyclo(F[NMehCys](X6)Y[dW]KV)) the pKi was > 9.00. In the case of `CC(C)[C@@H]1NC(=O)[C@H](CCCCN)NC(=O)[C@@H]([C@@H](C)c2c[nH]c3ccccc23)NC(=O)[C@H](Cc2ccncc2)NC(=O)[C@H](CCSCC(=O)NCCCCCCNC(=O)CN2CCN3CCN4CCN(CC2)CC(=O)[O][Lu]([O]C(=O)C3)[O]C(=O)C4)N(C)C(=O)[C@H](Cc2ccccc2)NC1=O` [RB-0004825] (cyclo([4Pal][dTrp(βS-Me)]KVF[NMehCys](DOTA(Lu)NH(CH2)6NHCOCH2))), the pKi was > 9.00. For `C[C@@H](O)[C@@H]1NC(=O)[C@H](CC2CCNCC2)NC(=O)[C@@H](Cc2c[nH]c3ccccc23)NC(=O)[C@H](Cc2ccc(O)cc2)NC(=O)[C@H](CCSCC(=O)NCCCCCCNC(=O)CN2CCN3CCN4CCN(CC2)CC(=O)[O][Lu]([O]C(=O)C3)[O]C(=O)C4)N(C)C(=O)[C@H](Cc2ccccc2)NC1=O` [RB-0004864] (cyclo(F[NMehCys](DOTA(Lu)NH(CH2)6NHCOCH2)Y[dW][Ala(piperidin-4-yl)]T)), the pKi was 8.48 to 9.00. For `C[C@@H](O)[C@@H]1NC(=O)[C@H](CC2CNC2)NC(=O)[C@@H](Cc2c[nH]c3ccccc23)NC(=O)[C@H](Cc2ccc(O)cc2)NC(=O)[C@H](CCSCC(=O)NCCCCCCNC(=O)CN2CCN3CCN4CCN(CC2)CC(=O)[O][Lu]([O]C(=O)C3)[O]C(=O)C4)N(C)C(=O)[C@H](Cc2ccccc2)NC1=O` [RB-0004866] (cyclo(F[NMehCys](DOTA(Lu)NH(CH2)6NHCOCH2)Y[dW][X25]T)), the pKi was 7.48 to 8.00. `C[C@@H](O)[C@@H]1NC(=O)[C@H](C2CCNCC2)NC(=O)[C@@H](Cc2c[nH]c3ccccc23)NC(=O)[C@H](Cc2ccc(O)cc2)NC(=O)[C@H](CCSCC(=O)NCCCCCCNC(=O)CN2CCN3CCN4CCN(CC2)CC(=O)[O][Lu]([O]C(=O)C3)[O]C(=O)C4)N(C)C(=O)[C@H](Cc2ccccc2)NC1=O` [RB-0004868] (cyclo(F[NMehCys](DOTA(Lu)NH(CH2)6NHCOCH2)Y[dW][Gly(piperidin-4-yl)]T)) showed a pKi of 8.00 to 8.48. `CC(C)[C@@H]1NC(=O)[C@H](CCCCN)NC(=O)[C@@H](Cc2c[nH]c3ccccc23)NC(=O)[C@H](Cc2ccc(O)cc2)NC(=O)[C@H](CCSCC(=O)NCCCCCCNC(=O)CN2CCN3CCN4CCN(CC2)CC(=O)[O][Lu]([O]C(=O)C3)[O]C(=O)C4)N(C)C(=O)[C@H](C2CC2)NC1=O` [RB-0005247] (cyclo([Gly(cPr)][NMehCys](DOTA(Lu)NH(CH2)6NHCOCH2)Y[dW]KV)) was tested, and the pKi was 8.00 to 8.48. Compound `CC(C)[C@@H]1NC(=O)[C@H](CCCCN)NC(=O)[C@@H](Cc2c[nH]c3ccccc23)NC(=O)[C@H](Cc2ccc(O)cc2)NC(=O)[C@H](CCSCC(=O)NCCCCCCNC(=O)CN2CCN3CCN4CCN(CC2)CC(=O)[O][Lu]([O]C(=O)C3)[O]C(=O)C4)N(C)C(=O)[C@H](CC(N)=O)NC1=O` [RB-0005253] (cyclo(KVN[NMehCys](DOTA(Lu)NH(CH2)6NHCOCH2)Y[dW])) has a pKi of 8.00 to 8.48. `CC(C)[C@@H]1NC(=O)[C@H](CCCCN)NC(=O)[C@@H](Cc2c[nH]c3ccccc23)NC(=O)[C@H](Cc2ccc(O)cc2)NC(=O)[C@H](CCSCC(=O)NCCCCCCNC(=O)CN2CCN3CCN4CCN(CC2)CC(=O)[O][Lu]([O]C(=O)C3)[O]C(=O)C4)N(C)C(=O)[C@H](Cc2cnc[nH]2)NC1=O` [RB-0005255] (cyclo(H[NMehCys](DOTA(Lu)NH(CH2)6NHCOCH2)Y[dW]KV)) was tested, and the pKi was 8.48 to 9.00. `CC(C)[C@@H]1NC(=O)[C@H](CCCCN)NC(=O)[C@@H](Cc2c[nH]c3ccccc23)NC(=O)[C@H](Cc2ccc(O)cc2)NC(=O)[C@H](CCSCC(=O)NCCCCCCNC(=O)CN2CCN3CCN4CCN(CC2)CC(=O)[O][Lu]([O]C(=O)C3)[O]C(=O)C4)N(C)C(=O)[C@H](C)NC1=O` [RB-0005266] (cyclo(A[NMehCys](DOTA(Lu)NH(CH2)6NHCOCH2)Y[dW]KV)) was tested, and the pKi was > 9.00. In the case of `CC(C)[C@@H]1NC(=O)[C@H](CCCCN)NC(=O)[C@@H](Cc2c[nH]c3ccccc23)NC(=O)[C@H](Cc2ccc(O)cc2)NC(=O)[C@H](CCSCC(=O)NCCCCCCNC(=O)CN2CCN3CCN4CCN(CC2)CC(=O)[O][Lu]([O]C(=O)C3)[O]C(=O)C4)N(C)C(=O)[C@H](CO)NC1=O` [RB-0005270] (cyclo(KVS[NMehCys](DOTA(Lu)NH(CH2)6NHCOCH2)Y[dW])), the pKi was > 9.00. For `C[C@@H](O)[C@@H]1NC(=O)[C@H](CCCCN)NC(=O)[C@@H](Cc2c[nH]c3ccccc23)NC(=O)[C@H](Cc2ccc(O)cc2)NC(=O)[C@H](CCSCC(=O)NCCOCCOCCNC(=O)CN2CCN3CCN4CCN(CC2)CC(=O)[O][Lu]([O]C(=O)C3)[O]C(=O)C4)N(C)C(=O)[C@H](Cc2ccccc2)NC1=O` [RB-0005272], the pKi was > 9.00. With `C[C@@H](O)[C@@H]1NC(=O)[C@H](CCCCN)NC(=O)[C@@H](Cc2c[nH]c3ccccc23)NC(=O)[C@H](Cc2ccc(O)cc2)NC(=O)[C@H](CCSCC(=O)NCCCCCCNC(=O)CCC(C(=O)O)N2CCN3CCN4CCN(CC2)CC(=O)[O][Lu]([O]C(=O)C4)[O]C(=O)C3)N(C)C(=O)[C@H](Cc2ccccc2)NC1=O` (some centres unmarked) [RB-0005274] the pKi was > 9.00. `C[C@@H](O)[C@@H]1NC(=O)[C@H](CCCCN)NC(=O)[C@@H](Cc2c[nH]c3ccccc23)NC(=O)[C@H](Cc2ccc(O)cc2)NC(=O)[C@H](CCSCC(=O)N[C@H](CCCCNC(=O)CN2CCN3CCN4CCN(CC2)CC(=O)[O][Lu]([O]C(=O)C3)[O]C(=O)C4)C(=O)O)N(C)C(=O)[C@H](Cc2ccccc2)NC1=O` [RB-0005276] was tested, and the pKi was 8.48 to 9.00.
